# Experimental data taken from article PMC7869652 (Invertebrate neuroscience : IN, 2019).
# Read-outs that look alike come from different tables or passages of the source.
# How the values were obtained:
# Type in all cases: cell-based
# Aca-ACR-16 [1] = target: T1, Aca-ACR-16 (Ancylostoma caninum, UniProt A0A5C1L5J1); experiment: two-electrode voltage clamp, Xenopus oocytes, peak current
# T1 sequence (A0A5C1L5J1 21-497): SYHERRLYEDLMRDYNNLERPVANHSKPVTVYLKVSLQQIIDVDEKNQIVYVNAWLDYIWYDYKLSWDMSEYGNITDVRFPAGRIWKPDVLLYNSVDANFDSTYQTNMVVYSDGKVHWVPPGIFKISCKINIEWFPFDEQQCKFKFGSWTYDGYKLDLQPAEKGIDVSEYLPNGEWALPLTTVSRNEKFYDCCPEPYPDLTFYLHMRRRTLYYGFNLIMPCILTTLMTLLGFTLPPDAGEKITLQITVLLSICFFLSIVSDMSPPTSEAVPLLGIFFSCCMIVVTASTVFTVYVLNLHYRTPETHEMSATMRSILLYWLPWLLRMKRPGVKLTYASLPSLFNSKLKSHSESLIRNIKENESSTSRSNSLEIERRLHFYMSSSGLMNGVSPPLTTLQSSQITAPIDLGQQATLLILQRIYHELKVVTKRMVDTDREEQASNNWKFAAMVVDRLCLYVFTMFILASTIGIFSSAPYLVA
# Aca-ACR-16 [2] = target: T1, Aca-ACR-16; experiment: two-electrode voltage clamp, Xenopus oocytes, inhibition of ACh current; settings: read-out: % inhibition at 10 μM
# Aca-ACR-16 [3] = target: T1, Aca-ACR-16; experiment: as above; settings: read-out: % inhibition at 10 μM; remark: listed apart in the source
# Aca-ACR-16 [4] = target: T1, Aca-ACR-16; experiment: two-electrode voltage clamp, Xenopus oocytes, peak current; settings: agonist; 10 s application; co-expressed with Asu-RIC-3
SMILES,inhibition at 10 µM (Aca-ACR-16 [3]) [%],also measured
CC(=O)OCC[N+](C)(C)C [acetylcholine],–,EC50 (Aca-ACR-16 [1]): 50 µM
CO[C@H]1CC=C2CCN3CCC4=C(CC(=O)OC4)[C@]23C1 [dihydro-β-erythroidine],–,inhibition at 10 µM (Aca-ACR-16 [2]): 98.8 ± 0.4%
CNC1(C)C2CCC(C2)C1(C)C (stereo not drawn) [mecamylamine],98.8 ± 0.6,–
CN1C(=O)[C@]23C[C@H]4C(C)(C)[C@]5(CNc6c5ccc5c6OC=CC(C)(C)O5)C[C@@]41CN2CC[C@@]3(C)O [derquantel],72 ± 5.6,–
COc1cc2c3cc1Oc1cc(ccc1O)C[C@@H]1c4c(cc(OC)c(O)c4Oc4ccc(cc4)C[C@@H]3N(C)CC2)CC[N+]1(C)C [d-tubocurarine],100 ± 0.1,–
Clc1ccc(C2CC3CCC2N3)cn1 (stereo not drawn) [epibatidine],–,% of 100 μM ACh current at 100 μM (Aca-ACR-16 [4]): 85.0 ± 4.0%
